Assay results taken from ChEMBL document CHEMBL1201862, “PubChem BioAssay data set” (2004).
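Protocol summary: plate cells (96-well), add compound at 5 concentrations, incubate 48 h, interpolate endpoints linearly. Abbreviation: GI50, concentration required for 50% inhibition of growth.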 Active and inactive are the calls of the source. Cut-off read from the data, not from the text of the source: active = GI50 up to about 1.1 µM and inactive = higher.

Assays:
Assay in all cases: growth of human tumour cells (NCI), 48 h
[1] = system: K562
[2] = system: HCT-116
[3] = system: CAKI-1
[4] = system: SF-295
[5] = system: HOP-92
[6] = system: A498
[7] = system: OVCAR-3
[8] = system: SNB-19
[9] = system: OVCAR-4
[10] = system: SF-268
[11] = system: KM12
[12] = system: SK-MEL-5
[13] = system: HT-29
[14] = system: SNB-75
[15] = system: HCC 2998
[16] = system: UO-31
[17] = system: HCT-15
[18] = system: MOLT-4
[19] = system: SK-MEL-2
[20] = system: DMS-114

With `COc1ccc(CC(N)=O)cc1OC` the GI50 [1] was > 1.25 mM (inactive), the GI50 [2] was > 1.25 mM (inactive) and the GI50 [3] was 0.564 mM (inactive). For the same compound, the GI50 [4] was > 1.25 mM (inactive), the GI50 [5] was 0.753 mM (inactive) and the GI50 [6] was > 1.25 mM (inactive). For the same compound, the GI50 [7] was > 1.25 mM (inactive), the GI50 [8] was > 1.25 mM (inactive) and the GI50 [9] was > 1.25 mM (inactive). For the same compound, the GI50 [10] was > 1.25 mM (inactive), the GI50 [11] was > 1.25 mM (inactive) and the GI50 [12] was > 1.25 mM (inactive). For the same compound, the GI50 [13] was > 1.25 mM (inactive), the GI50 [14] was 0.769 mM (inactive) and the GI50 [15] was > 1.25 mM (inactive). The GI50 [16] was > 1.25 mM (inactive), the GI50 [17] was 1.09 mM and the GI50 [18] was > 1.25 mM (inactive). For the same compound, the GI50 [19] was > 1.25 mM (inactive) and the GI50 [20] was > 1.25 mM (inactive).
